According to ChEMBL document CHEMBL1201862, “PubChem BioAssay data set” (2004):
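Each compound was tested at five concentrations against cells in 96-well plates for 48 hours. GI50 is the concentration that inhibits growth by half.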 Active and inactive are the calls of the source. No stated cut-off is given here; in the data, active = GI50 up to about 1.1 µM and inactive = higher.

Key:
Assay in all cases: growth of human tumour cells (NCI), 48 h
OVCAR-3 = tested on: OVCAR-3
SK-OV-3 = tested on: SK-OV-3
NCI-H23 = tested on: NCI-H23
HCT-116 = tested on: HCT-116
SK-MEL-2 = tested on: SK-MEL-2
A549 = tested on: A549
LOX IMVI = tested on: LOX IMVI
SF-539 = tested on: SF-539
NCI-H460 = tested on: NCI-H460
SR = tested on: SR
SF-295 = tested on: SF-295
KM12 = tested on: KM12
SNB-19 = tested on: SNB-19
DU-145 = tested on: DU-145
HCC 2998 = tested on: HCC 2998
HOP-62 = tested on: HOP-62
PC-3 = tested on: PC-3
OVCAR-4 = tested on: OVCAR-4
NCI-H522 = tested on: NCI-H522
RPMI-8226 = tested on: RPMI-8226

Row | SMILES | GI50 (OVCAR-3) | GI50 (SK-OV-3) | GI50 (NCI-H23) | GI50 (HCT-116) | GI50 (SK-MEL-2) | GI50 (A549) | GI50 (LOX IMVI) | GI50 (SF-539) | GI50 (NCI-H460) | GI50 (SR) | GI50 (SF-295) | GI50 (KM12) | GI50 (SNB-19) | GI50 (DU-145) | GI50 (HCC 2998) | GI50 (HOP-62) | GI50 (PC-3) | GI50 (OVCAR-4) | GI50 (NCI-H522) | GI50 (RPMI-8226)
1 | C1C2CC3CC1CC(c1nn4c(C56CC7CC(CC(C7)C5)C6)nnc4s1)(C2)C3 | > 100 µM (inactive) | > 100 µM (inactive) | > 100 µM (inactive) | > 100 µM (inactive) | > 100 µM (inactive) | > 100 µM (inactive) | > 100 µM (inactive) | > 100 µM (inactive) | > 100 µM (inactive) | > 100 µM (inactive) | > 100 µM (inactive) | > 100 µM (inactive) | > 100 µM (inactive) | > 100 µM (inactive) | > 100 µM (inactive) | > 100 µM (inactive) | > 100 µM (inactive) | > 100 µM (inactive) | > 100 µM (inactive) | > 100 µM (inactive)
2 | Cc1cc(O)c(C(C)C)cc1/N=C/c1ccccc1O | 2.48 µM (inactive) | 15.2 µM (inactive) | 15.2 µM (inactive) | 4 µM (inactive) | 11 µM (inactive) | 18.5 µM (inactive) | 3.13 µM (inactive) | 30.8 µM (inactive) | 5.3 µM (inactive) | 1.15 µM (inactive) | 13.1 µM (inactive) | 3.76 µM (inactive) | 17.5 µM (inactive) | 5.53 µM (inactive) | 7.29 µM (inactive) | 11.7 µM (inactive) | 5.08 µM (inactive) | 2.41 µM (inactive) | 3.72 µM (inactive) | 0.278 µM (active)
3 | Cc1cc(C23OC4COC(C)(C)OC4C2OC(C)(C)O3)nc2ccccc12 (stereo not given) | > 100 µM (inactive) | > 100 µM (inactive) | > 100 µM (inactive) | > 100 µM (inactive) | > 100 µM (inactive) | > 100 µM (inactive) | > 100 µM (inactive) | > 100 µM (inactive) | > 100 µM (inactive) | 72.8 µM (inactive) | > 100 µM (inactive) | > 100 µM (inactive) | > 100 µM (inactive) | > 100 µM (inactive) | > 100 µM (inactive) | > 100 µM (inactive) | 78.2 µM (inactive) | > 100 µM (inactive) | > 100 µM (inactive) | > 100 µM (inactive)
4 | c1cc(C2=NCCO2)c2ccsc2c1 | > 100 µM (inactive) | > 100 µM (inactive) | > 100 µM (inactive) | > 100 µM (inactive) | > 100 µM (inactive) | > 100 µM (inactive) | > 100 µM (inactive) | > 100 µM (inactive) | > 100 µM (inactive) | > 100 µM (inactive) | > 100 µM (inactive) | > 100 µM (inactive) | > 100 µM (inactive) | > 100 µM (inactive) | > 100 µM (inactive) | > 100 µM (inactive) | > 100 µM (inactive) | > 100 µM (inactive) | > 100 µM (inactive) | > 100 µM (inactive)
5 | C[N+](C)=C/C=C(\Cl)c1ccc2ccccc2c1 | 6.24 µM (inactive) | 18 µM (inactive) | 5.98 µM (inactive) | 2.76 µM (inactive) | 25.2 µM (inactive) | > 75.7 µM (inactive) | 4.33 µM (inactive) | 25.1 µM (inactive) | 23.3 µM (inactive) | 1.39 µM (inactive) | 16.9 µM (inactive) | 15 µM (inactive) | 21.7 µM (inactive) | 14.9 µM (inactive) | 6.37 µM (inactive) | 17.8 µM (inactive) | 19.8 µM (inactive) | 3.82 µM (inactive) | 21.4 µM (inactive) | 2.89 µM (inactive)
